Measured values from patent US20080004290A1, “Anti-Cancer Agents” (THE UNIVERSITY OF QUEENSLAND, priority 2003, published 2008).
Like-named read-outs stand apart in the source and are kept apart here.

Assays:
[1] = test system: NFF, neonatal foreskin fibroblasts; assay: Cell survival assay (clonogenic survival, SRB), normal cells; type: cell-based, human; details: SRB
Procedure: (§1) The cytotoxicities of the compounds of the invention were determined by clonogenic survival of human cancer cells (MM96L, melanoma) and human normal cells (NFF, neonatal foreskin fibroblasts). Cells were incubated with the compounds at various concentrations of compound (0.01-10 μg/mL) for 24 hours, washed, and then grown for a further four days in the absence of hydroxamic acid before determining cell survival by cell count. The final readout involved staining with sulforhodamine B (SRB), a cost-effective method amenable to automation and high throughput analysis. At the technical level, “cell sensitivity” is often inferred from short term (1-2 day) observations such as apoptosis, which may not be a satisfactory model of clonogenic survival.
(§2) Cell Lines and Culture Medium. All cell lines used in this study have been described previously (Parsons et al., 1986; Todaro et al., 1980; Glenn et al., 2004). All cell lines were cultured in 10% heat-inactivated foetal calf serum (CSL, Australia) in RPMI 1640 medium supplemented with 100 U/mL penicillin, 100 μg/mL streptomycin, and 3 mM HEPES at 5% CO2, 99% humidity at 37° C. Primary human fibroblasts were obtained from neonatal foreskins and cultured in the above medium. Routine mycoplasma tests were performed using Hoechst stain^i and were always negative.
(§3) Cell Survival Assay. Cells were plated into 96-well microtitre plates at 5×10^3 cells/well, and allowed to adhere overnight. Test compounds were added to culture medium at the indicated concentrations, and plates incubated in the above conditions for 24 hours. Following this incubation period, compounds and media were removed, and replaced with fresh culture medium. Cells were then grown for a further 72 hours before assay using sulforhodamine B (SRB; Sigma, St. Louis, Mo.) as previously described. Briefly, the culture medium was removed from the 96-well microtitre plates and the plates washed twice with phosphate buffered saline (PBS), before the cells were fixed with methylated spirits for 15 minutes. The plates were then rinsed with tap water and the fixed cells stained with 50 μL/well of SRB solution (0.4% sulforhodamine B (w/v) in 1% (v/v) acetic acid) over a period of 1 hour. The SRB solution was then removed from the wells and the plates rapidly washed two times with 1% (v/v) acetic acid. Protein bound dye was then solubilised with the addition of 100 μL of 10 mM unbuffered Tris, and incubated for 15 min at 25° C. Plates were then read at 564 nm on a VERSA max tunable microplate reader (Molecular Devices, Sunnyvale, Calif.).

MM96L melanoma cells = assay: Cell survival assay (clonogenic survival, SRB); type: cell-based, human; details: for SI (Selectivity Index = IC50 (NFF)/IC50 (MM96L)): NFF vs MM96L
Procedure: as §1, §2, §3

[2] = Table 8, 24 hours with compound, further growth, read-out: IC50 (μM) NFF
[3] = Table 8, 24 hours with compound, further growth, SRB, read-out: IC50 (μM) MM96
[4] = Table 8, IC50 (NFF)/IC50 (MM96L)
[5] = Homo sapiens, Fibroblast, NFF normal fibroblasts, 24 h with compound, further 72 h growth, read-out: IC50 (uM) NFF
[6] = Homo sapiens, MM96L, MM96L melanoma, 24 h with compound, further 72 h growth, SRB, read-out: IC50 (uM) MM96L
[7] = Homo sapiens, MM96L, most preferred compounds, exemplary examples, read-out: potency of IC50 against the MM96 melanoma cells
[8] = Table 5, 24 hours with compound, further growth, read-out: IC50 NFF
[9] = Table 5, 24 hours with compound, further growth, SRB, read-out: IC50 MM96L
[10] = Table 5, Selectivity Index = IC50 (NFF)/IC50 (MM96L)
[11] = Homo sapiens, Fibroblast, 24 h, Table 6, 24 hours with compound, further growth, read-out: IC50 (μM) NFF
[12] = Homo sapiens, MM96L, 24 h, Table 6, 24 hours with compound, further growth, SRB, read-out: IC50 (μM) MM96L
[13] = Table 6, IC50 (NFF)/IC50 (MM96L)
[14] = NFF normal fibroblasts, 24 h with compound, further 72 h growth, read-out: IC50 (uM) NFF
[15] = MM96L melanoma, 24 h with compound, further 72 h growth, SRB, read-out: IC50 (uM) MM96L

CN(C)c1ccc(C(=O)N[C@@H](CSCCCC(=O)NO)C(=O)NCc2ccc(C(=O)NC3CCCC3)cc2)cc1 [Example 117]
IC50 [1, 2]: 5.27 µM
IC50 (MM96L melanoma cells; [3]): 1.19 µM
Selectivity (MM96L melanoma cells; [4]): 4.4

CN(C)c1ccc(C(=O)N[C@@H](CSCCCC(=O)NO)C(=O)NCc2ccc(C(=O)NCc3nc4ccccc4[nH]3)cc2)cc1 [Example 113]
IC50 [1, 2]: 15.8 µM
IC50 (MM96L melanoma cells; [3]): 3.96 µM
Selectivity (MM96L melanoma cells; [4]): 4.0

O=C(CCCCC[C@H](NC(=O)c1cc2c(O)cccc2[nH]1)C(=O)NCc1ccccc1)NO [Example 166]
IC50 [1, 5]: 2.21 µM
IC50 (MM96L melanoma cells; [6]): 0.331 µM
IC50 (MM96L melanoma cells; [7]): ≤ 0.5 µM
SI (Selectivity Index = IC50 (NFF)/IC50 (MM96L)) (MM96L melanoma cells): 6.7

COc1ccc(CCC(=O)N[C@@H](CSCCCC(=O)NO)C(=O)NCc2ccccc2)cc1 [Example 47]
IC50 [1, 8]: 16 ± 1 µM
IC50 (MM96L melanoma cells; [9]): 8 ± 1 µM
Selectivity (MM96L melanoma cells; [10]): 2.0

CN(C)c1ccc(C(=O)N[C@@H](CSCCCC(=O)NO)C(=O)Nc2cccc3scnc23)cc1 [Example 69]
IC50 [1, 11]: 3.3 ± 0.3 µM
IC50 (MM96L melanoma cells; [12]): 1.3 ± 0.1 µM
Selectivity (MM96L melanoma cells; [13]): 2.5

O=C(CCCCC[C@H](NC(=O)c1cc2ccccc2[nH]1)C(=O)NCc1ccccc1)NO [Example 131]
IC50 [1, 14]: 0.572 µM
IC50 (MM96L melanoma cells; [15]): 0.08 µM
SI (Selectivity Index = IC50 (NFF)/IC50 (MM96L)) (MM96L melanoma cells): 7.1

O=C(CCCCC[C@H](NC(=O)c1ccc(Br)cc1)C(=O)NCc1ccccc1)NO [Example 136]
IC50 [1, 5]: 5.86 µM
IC50 (MM96L melanoma cells; [6]): 1.99 µM
SI (Selectivity Index = IC50 (NFF)/IC50 (MM96L)) (MM96L melanoma cells): 4.2

O=C(CCCSC[C@H](NC(=O)c1ccco1)C(=O)NCc1ccccc1)NO [Example 34]
IC50 [1, 8]: 22 ± 1 µM
IC50 (MM96L melanoma cells; [9]): 7.2 ± 0.2 µM
Selectivity (MM96L melanoma cells; [10]): 3.1

O=C(/C=C/c1ccccc1)N[C@@H](CSCCCC(=O)NO)C(=O)NCc1ccncc1 [Example 100]
IC50 ([1]; Homo sapiens, Fibroblast, 24 h, Table 7, 24 hours with compound, further growth, read-out: IC50 (μM) NFF): 1.6 ± 0.2 µM
IC50 (MM96L melanoma cells; Homo sapiens, MM96L, 24 h, Table 7, 24 hours with compound, further growth, SRB, read-out: IC50 (μM) MM96L): 0.34 ± 0.02 µM
IC50 (MM96L melanoma cells; [7]): ≤ 0.5 µM
Selectivity (MM96L melanoma cells; Table 7, IC50 (NFF)/IC50 (MM96L)): 4.8

CN(C)c1ccc(C(=O)NC(CCCCCC(=O)NO)C(=O)NC2CCCc3ccccc32)cc1 (racemic) [Example 125]
IC50 [1, 14]: 1.81 ± 0.07 µM
IC50 (MM96L melanoma cells; [15]): 0.3 ± 0.1 µM
SI (Selectivity Index = IC50 (NFF)/IC50 (MM96L)) (MM96L melanoma cells): 6.0

O=C(CCCSC[C@H](NS(=O)(=O)c1ccccc1)C(=O)NCc1ccccc1)NO [Example 58]
IC50 [1, 8]: > 100 µM
IC50 (MM96L melanoma cells; [9]): < 100 µM
Selectivity (MM96L melanoma cells; [10]): >1

CN(C)c1ccc(C(=O)N[C@@H](CSCCCC(=O)NO)C(=O)NCc2ccc(C(=O)Nc3ccccc3Cc3ccccc3)cc2)cc1 [Example 120]
IC50 [1, 2]: 2.32 µM
IC50 (MM96L melanoma cells; [3]): 1.02 µM
Selectivity (MM96L melanoma cells; [4]): 2.4

CN(C)c1ccc(C(=O)N[C@@H](CSCCCC(=O)NO)C(=O)NCc2ccc(C(=O)NCc3ccccc3)cc2)cc1 [Example 106]
IC50 [1, 2]: 11.8 µM
IC50 (MM96L melanoma cells; [3]): 1.18 µM
Selectivity (MM96L melanoma cells; [4]): 10.0

O=C(/C=C/c1ccccc1)N[C@@H](CSCCCC(=O)NO)C(=O)NCc1ccccc1 [Example 48]
IC50 [1, 8]: 0.8 ± 0.2 µM
IC50 (MM96L melanoma cells; [9]): 0.2 ± 0.1 µM
Selectivity (MM96L melanoma cells; [10]): 4.0

O=C(CCCCC[C@H](NC(=O)c1ccc(Br)cc1)C(=O)NCc1ccncc1)NO [Example 158]
IC50 [1, 5]: 5.24 µM
IC50 (MM96L melanoma cells; [6]): 0.837 µM
SI (Selectivity Index = IC50 (NFF)/IC50 (MM96L)) (MM96L melanoma cells): 6.3

CN(C)c1ccc(C(=O)N[C@@H](CSCCCC(=O)NO)C(=O)N2CCCCC2)cc1 [Example 91]
IC50 [1, 11]: 20 ± 2 µM
IC50 (MM96L melanoma cells; [12]): 4.9 ± 0.3 µM
Selectivity (MM96L melanoma cells; [13]): 4.2

CN(C)c1ccc(C(=O)N[C@@H](CSCCCC(=O)NO)C(=O)NCc2ccccc2)cc1 [Example 73]
IC50 [1, 11]: 0.35 ± 0.07 µM
IC50 (MM96L melanoma cells; [12]): 0.14 ± 0.09 µM
Selectivity (MM96L melanoma cells; [13]): 2.5

O=C(CCCSC[C@H](NC(=O)c1cc2ccccc2cc1O)C(=O)NCc1ccccc1)NO [Example 39]
IC50 [1, 8]: > 100 µM
IC50 (MM96L melanoma cells; [9]): 13 ± 2 µM
Selectivity (MM96L melanoma cells; [10]): >8

CN(C)c1ccc(C(=O)N[C@@H](CSCCCC(=O)NO)C(=O)NCc2cccnc2)cc1 [Example 81]
IC50 [1, 11]: 8.8 ± 0.5 µM
IC50 (MM96L melanoma cells; [12]): 1.49 ± 0.09 µM
Selectivity (MM96L melanoma cells; [13]): 5.9
